From patent publication US6372963B1, “Transformation method for plants” (Aventis CropScience N.V., priority 1998, dated 2002)

Assays:
Format in all cases: cell-based
[1] = system: type I calli from the PHH corn line; assay: Agrobacterium-mediated transformation of plant-phenolic pre-treated type I callus from corn; conditions: for Approximate mean transformation frequency with pretreatment: 5 days on 100-200 μM acetosyringone; for PAT-positive plant lines: about 4000 pre-treated callus fragments
Text: Type I callus fragments were obtained essentially as described in WO 92/09696. Immature embryos from corn line (Pa91xH99)xH99 (PHH-line) were excised from the kernel 9-12 days after pollination, surface sterilized and plated on Mahi1VII medium for the induction of type I callus. Type I callus was subcultured on the same medium with one month intervals for about two to six months. Next, type I callus was finely cut in fragments with an average length of about 1.5 mm, and the resulting fragments were incubated-for 5 days on LSIDhy1.5VII substrate supplemented with 100-200 μM acetosyringone. The pre-induced callus pieces were collected and without further wounding, immersed in a suspension of the appropriate Agrobacterium strain for about 3 to about 20 minutes. The bacterial suspension was obtained in the following way: bacteria were grown for 3 to 6 days on MAG medium [minimal A medium (Jeffrey Miller, 1972) supplemented with 2 g/L glucose] or AB medium (Chilton et al., 1974). The bacteria were harvested, and resuspended in liquid LSI substrate supplemented with 100-200 μM acetosyringone, at a concentration of about 5×10^9 cells/ml.
After immersion in the bacterial suspension, the callus fragments were co-cultivated on LSIIDhy1.5XI medium, supplemented with 100-200 μM acetosyringone, at about 25° C. for 3 to 6 days (3 days for LBA-type strain, 6 days for EHA-type strain).
After co-cultivation, the tissue was transferred to Ahx1.5VIIp500ino1000ppT10 and cultured for3 to 4 weeks. Proliferating, phosphinotricin (PPT)-resistant calli were excised and subcultured at least twice, with 3 week subculture intervals on Mh1VIIp500ppT5. Embryogenic PPT-resistant calli were plated on regeneration medium (A37VIIp500 ppT2.), and the embryogenic tissue was subcultured twice, with 10 to 14 day intervals, on the same medium. Small plants were transferred to glass containers containing A6%VIIp500ppT2 substrate for further growth, and developing shoots were then transferred to half-strength MS medium supplemented with 1.5% sucrose to allow further shoot elongation as well as rooting. Plants were tested for phosphinothricin acetyl transferase (PAT) activity, and PAT-positive plants were transferred to the greenhouse. PAT-positive plants were tested for the presence of the transgene by Southern hybridization.
Type I callus fragments were obtained as described in Example I and incubated for 5 days on LSIDhy1.5VII substrate supplemented with 100 μM of acetosyringone, followed by co-cultivation with Agrobacterium strain A3532 and A3638. For strain A3532 only I PAT-positive plant was obtained, even with acetosyringone pretreatment (transformation frequency<0.1%). However, the presence of the functional virB promoter preceding the virB11 open reading frame on the T-DNA vector, improved the transformation efficiency (see Table I) at least almost ten times.
Type I callus fragments were obtained as described in Example 1 and incubated for 5 days on LSIDhy1.5VII substrate supplemented with 100 μM of the plant phenolic compounds of Table II. Approximately 200 pre-induced callus fragments were co-cultivated with Agrobacterium strain A3637 (or A3638).
Type I callus fragments were obtained as described in Example 1 and incubated for 5 days on LSIDhy1.5VII substrate supplemented with either 200 μM of acetosyringone or a combination of 100 μM acetosyringone and 100 μM p-hydroxybenzoic acid. About 250 callus pieces were co-cultivated with Agrobacterium strain A3533. Whereas 2 shoot-regenerating lines (comprising 1 PAT-positive line) were obtained on PPT containing media after pre-induction on acetosyringone (frequency about 1%), 7 shoot regenerating lines (comprising 5 PAT-positive lines) were obtained on PPT containing media after pre-induction on acetosyringone plus p-hydroxybenzoic acid (frequency about 3%).

type I callus from corn = assay: Transformation by electroporation of acetosyringone pre-treated type I callus from corn; conditions: 5 days on 100 μM acetosyringone
Experimental: Finely chopped pieces of calli, derived from type I callus and pre-incubated for 5 days on 100 μM acetosyringone-containing medium, as described in Example 1, were subjected without further wounding to electroporation as described in […]/09696. Briefly, about 50 callus pieces were resuspended in 100 μl EPM-KCl buffer and preplasmolyzed for 3 hr at room temperature. Next the callus pieces were washed in EPM+KCl buffer and transferred to an electrocuvette in EPM+KCl buffer. Plasmid DNA (10 μg of pDE110) was added, and the DNA was incubated with the callus fragments for about 1 hr at room temperature. Electroporation was carried out using standard conditions (1 pulse with initial field strength 375 V/cm from a 900 μF capacitor). The calli were never kept on ice. Phosphinotricin-resistant calli were selected and plants regenerated as described ([…]/09696). Phosphinotricin acetyl transferase activity was detected as described ([…]/09696).

[2] = system: type I calli obtained from corn plant line (Pa91xH99)xPa91 (PHP); assay: Agrobacterium co-cultivation of acetosyringone pre-treated type I calli, PHP line
[3] = system: type I calli obtained from corn plant line Pa91; assay: Agrobacterium co-cultivation of acetosyringone pre-treated type I calli, Pa91 line
[4] = 5 days on 100 μM compound, approximately 200 callus fragments, strain A3637 (or A3638)
[5] = strain A3533, about 250 callus pieces, 200 μM acetosyringone or 100 μM acetosyringone + 100 μM p-hydroxybenzoic acid, 5 days
[6] = electroporation of about 530 callus pieces

For `O=C(O)c1ccc(O)cc1O` [2,4-dihydroxybenzoic acid, 2,4 dihydroxybenzoic acid], the “Number of PAT-positive lines” value [1, 4] was 1 and the Transformation frequency [1, 4] was 0.5%.
`O=C(O)c1ccc(O)c(O)c1` [3,4-dihydroxybenzoic acid] was tested, and the “Number of PAT-positive lines” value [1, 4] was 2 and the Transformation frequency [1, 4] was 1%.
In the case of `COc1cc(C(C)=O)cc(OC)c1O` [acetosyringone, 3,5-dimethoxy-4-hydroxyacetophenone], the “Number of PAT-positive lines” value [1, 4] is reported as 2, the Transformation frequency [1, 4] is reported as 1% and the “Approximate mean transformation frequency with pretreatment” value ([1]; Agrobacterium strain A3533) is reported as 0.8%. The “Approximate mean transformation frequency with pretreatment” value ([1]; Agrobacterium strain A3637) was 0.8%, the “Approximate mean transformation frequency with pretreatment” value ([1]; Agrobacterium strain A3638) was 0.9% and the “low concentration still giving a good effect on transformation efficiency” value ([1]; pretreatment medium) was “approximately 25 μM”. The “optimal concentration in the medium” value ([1]; pretreatment medium) was “approximately 200 μM”, the PAT-positive lines ([1]; strain A3460, about 1700 pre-treated callus fragments) was 5 and the Transformation frequency ([1]; strain A3532, 5 days on 100 μM acetosyringone) was < 0.1%. The PAT-positive lines [1, 5] was 1, the frequency [1, 5] was “about 1%” and the “shoot-regenerating lines on PPT containing media” value [1, 5] was 2. For the same compound, the PAT-positive plant lines ([1]; strain A3533) was 30, the PAT-positive plant lines ([1]; strain A3637) was 33 and the PAT-positive plant lines ([1]; strain A3638) was 37. For the same compound, the average transformation frequencies ([1]; strains A3638, A3533 and A3637, about 4000 pre-treated callus fragments each) was “about 1%”, the “increase in transformation efficiency by pretreatment” value ([1]; versus no pretreatment, co-cultivation with Agrobacterium strains) was “at least three times” and the PAT-positive plants (type I callus from corn; [6]) was 4. For the same compound, the Transformation frequency (type I callus from corn; [6]) was “about 0.75%”, the “transformation frequency relative to callus not pre-treated” value (type I callus from corn; electroporation) was “about three times higher” and the “effect of pre-treatment on transformation frequency” value [2] was “Enhancement of transformation frequency”. The “effect of pre-treatment on transformation frequency” value [3] was “Enhancement of transformation frequency”.
`Oc1ccccc1O` [catechol, 1,2-dihydroxybenzene] was tested, and the “Number of PAT-positive lines” value [1, 4] was 1 and the Transformation frequency [1, 4] was 0.5%.
`O=C(O)c1cc(O)c(O)c(O)c1` [gallic acid, 3,4,5-trihydroxybenzoic acid] was tested, and the “Number of PAT-positive lines” value [1, 4] was 3 and the Transformation frequency [1, 4] was 1.5%.
In the case of `O=C(O)c1ccc(O)cc1` [p-hydroxybenzoic acid, 4-hydroxybenzoic acid], the “Number of PAT-positive lines” value [1, 4] is reported as 2 and the Transformation frequency [1, 4] is reported as 1%.
In the case of `COc1cc(C=O)ccc1O` [vanillin, 3-methoxy-4-hydroxybenzaldehyde], the “Number of PAT-positive lines” value [1, 4] is reported as 4 and the Transformation frequency [1, 4] is reported as 2%.
